From ChEMBL document CHEMBL3885861, “Open TG-GATES”

Organism: Rattus norvegicus
Assay: Open TG-GATES - Regimen: Single
Type: toxicity, organism-based, Sprague-Dawley
Design: regimen Single, gender Male, age 6 weeks
Conditions: in vivo, po, 0 mg/kg, route gavage, dose level Control; for APTT / Bas / Eos / Fbg / Hb / Ht / Lym / MCH / MCHC / MCV / Mono / Neu / PT / Plat / RBC / Ret / WBC: tissue Blood; for KIDNEY_L / KIDNEY_R / KIDNEY_TOTAL: tissue Kidney; for LIVER: tissue Liver; for A/G / ALP / ALT / AST / BUN / CRE / Ca / Cl / DBIL / GLC / IP / K / LDH / Na / PL / RALB / TBIL / TC / TG / TP / gamma-GTP: tissue Plasma

Q: Which results are given for `CC1=C(CC(=O)O)c2cc(F)ccc2/C1=C\c1ccc([S+](C)[O-])cc1` (configuration not stated)?
A: TERMINAL_BW (3 h): 203.6 g; APTT (3 h): 20.8 s; Bas (3 h): 0.2%; Eos (3 h): 0.8%; Fbg (3 h): 275 mg/dL; Hb (3 h): 13.9 g/dL; Ht (3 h): 42%; Lym (3 h): 77.4%; MCH (3 h): 21.5 pg; MCHC (3 h): 33.1%; MCV (3 h): 65.1 fL; Mono (3 h): 2.8%; Neu (3 h): 18.6%; PT (3 h): 14.2 s; Plat (3 h): 116.8 x10_4/uL; RBC (3 h): 645.6 x10_4/ul; Ret (3 h): 7.9%; WBC (3 h): 80.3 x10_2/uL; KIDNEY_L (3 h): 0.8 g; KIDNEY_R (3 h): 0.9 g; KIDNEY_TOTAL (3 h): 1.7 g; LIVER (3 h): 9.3 g; A/G (3 h): 0.9; ALP (3 h): 1495.6 IU/L; ALT (3 h): 41.6 IU/L; AST (3 h): 79.8 IU/L; BUN (3 h): 10.4 mg/dL; CRE (3 h): 0.2 mg/dL; Ca (3 h): 10.9 mg/dL; Cl (3 h): 105.4 meq/L; DBIL (3 h): 0.01 mg/dL; GLC (3 h): 168 mg/dL; IP (3 h): 8.7 mg/dL; K (3 h): 3.9 meq/L; LDH (3 h): 79.6 IU/L; Na (3 h): 142.4 meq/L; PL (3 h): 150.6 mg/dL; RALB (3 h): 2.6 g/dL; TBIL (3 h): 0.024 mg/dL; TC (3 h): 80.8 mg/dL; TG (3 h): 65.4 mg/dL; TP (3 h): 5.4 g/dL; gamma-GTP (3 h): 1 IU/L; TERMINAL_BW (6 h): 197.1 g; APTT (6 h): 17.8 s; Bas (6 h): 0%; Eos (6 h): 1%; Fbg (6 h): 281.8 mg/dL; Hb (6 h): 13.8 g/dL; Ht (6 h): 42.2%; Lym (6 h): 78.6%; MCH (6 h): 20.7 pg; MCHC (6 h): 32.8%; MCV (6 h): 62.9 fL; Mono (6 h): 2.8%; Neu (6 h): 17%; PT (6 h): 14.2 s; Plat (6 h): 121.9 x10_4/uL; RBC (6 h): 670.4 x10_4/ul; Ret (6 h): 7.7%; WBC (6 h): 78.4 x10_2/uL; KIDNEY_L (6 h): 0.8 g; KIDNEY_R (6 h): 0.9 g; KIDNEY_TOTAL (6 h): 1.7 g; LIVER (6 h): 8 g; A/G (6 h): 0.9; ALP (6 h): 1387.6 IU/L; ALT (6 h): 38.2 IU/L; AST (6 h): 72 IU/L; BUN (6 h): 7.4 mg/dL; CRE (6 h): 0.2 mg/dL; Ca (6 h): 10.6 mg/dL; Cl (6 h): 106.4 meq/L; DBIL (6 h): 0.002 mg/dL; GLC (6 h): 171.8 mg/dL; IP (6 h): 9.5 mg/dL; K (6 h): 4.1 meq/L; LDH (6 h): 71.6 IU/L; Na (6 h): 142 meq/L; PL (6 h): 142 mg/dL; RALB (6 h): 2.5 g/dL; TBIL (6 h): 0.03 mg/dL; TC (6 h): 83.6 mg/dL; TG (6 h): 37.4 mg/dL; TP (6 h): 5.2 g/dL; gamma-GTP (6 h): 1.6 IU/L; TERMINAL_BW (9 h): 198.3 g; APTT (9 h): 16.6 s; Bas (9 h): 0%; Eos (9 h): 0.8%; Fbg (9 h): 308.8 mg/dL; Hb (9 h): 13.9 g/dL; Ht (9 h): 42.5%; Lym (9 h): 81.6%; MCH (9 h): 21.1 pg; MCHC (9 h): 32.7%; MCV (9 h): 64.8 fL; Mono (9 h): 2%; Neu (9 h): 15%; PT (9 h): 13.8 s; Plat (9 h): 120.2 x10_4/uL; RBC (9 h): 655.8 x10_4/ul; Ret (9 h): 7.7%; WBC (9 h): 58.8 x10_2/uL; KIDNEY_L (9 h): 0.9 g; KIDNEY_R (9 h): 0.9 g; KIDNEY_TOTAL (9 h): 1.9 g; LIVER (9 h): 7.9 g; A/G (9 h): 1; ALP (9 h): 1678 IU/L; ALT (9 h): 36.8 IU/L; AST (9 h): 70 IU/L; BUN (9 h): 10 mg/dL; CRE (9 h): 0.2 mg/dL; Ca (9 h): 10.6 mg/dL; Cl (9 h): 107.8 meq/L; DBIL (9 h): 0.004 mg/dL; GLC (9 h): 182 mg/dL; IP (9 h): 10.1 mg/dL; K (9 h): 4.3 meq/L; LDH (9 h): 65.6 IU/L; Na (9 h): 142.4 meq/L; PL (9 h): 142 mg/dL; RALB (9 h): 2.6 g/dL; TBIL (9 h): 0.03 mg/dL; TC (9 h): 83 mg/dL; TG (9 h): 47.6 mg/dL; TP (9 h): 5.3 g/dL; gamma-GTP (9 h): 1 IU/L; TERMINAL_BW (24 h): 215.3 g; APTT (24 h): 16 s; Bas (24 h): 0%; Eos (24 h): 1%; Fbg (24 h): 292.8 mg/dL; Hb (24 h): 13.7 g/dL; Ht (24 h): 42.7%; Lym (24 h): 77.6%; MCH (24 h): 21 pg; MCHC (24 h): 32.2%; MCV (24 h): 65.2 fL; Mono (24 h): 2.8%; Neu (24 h): 18.2%; PT (24 h): 13.7 s; Plat (24 h): 140.1 x10_4/uL; RBC (24 h): 654.6 x10_4/ul; Ret (24 h): 7.3%; WBC (24 h): 87.2 x10_2/uL; KIDNEY_L (24 h): 0.9 g; KIDNEY_R (24 h): 0.9 g; KIDNEY_TOTAL (24 h): 1.8 g; LIVER (24 h): 9.8 g; A/G (24 h): 0.9; ALP (24 h): 1542 IU/L; ALT (24 h): 49 IU/L; AST (24 h): 74 IU/L; BUN (24 h): 13.2 mg/dL; CRE (24 h): 0.2 mg/dL; Ca (24 h): 11 mg/dL; Cl (24 h): 106.4 meq/L; DBIL (24 h): 0.01 mg/dL; GLC (24 h): 182.6 mg/dL; IP (24 h): 7.3 mg/dL; K (24 h): 4.1 meq/L; LDH (24 h): 75 IU/L; Na (24 h): 142.2 meq/L; PL (24 h): 153 mg/dL; RALB (24 h): 2.7 g/dL; TBIL (24 h): 0.02 mg/dL; TC (24 h): 83.2 mg/dL; TG (24 h): 82.2 mg/dL; TP (24 h): 5.5 g/dL; gamma-GTP (24 h): 1 IU/L
